Measurements reported in US11285167B2, “Synergistic nutritional neuroprotective compositions for ameliorating neural dysfunction” (CELAGENEX RESEARCH (INDIA) PVT. LTD., priority 2019, dated 2022).

How the values were obtained:
[1] = test system: Valproic acid-induced autism disorder in albino Wistar rats; assay: Open field test (hyperactivity) in Valproic acid-induced autism disorder; type: in vivo; conditions: for No. of squares visited for 6 mins: PND 40, VPA 400 mg/kg, oral daily PND 14 to PND 40, mean ± SEM; for Hyperactive behavior / locomotor activity, open field test (in words): PND 40, compared to Disease control or to Group-3 and Group-4
Method: The present study was to evaluate the effect of test substances on Valproic acid induced Autism spectrum disorder in wistar rats. The animals (50 animals) were divided into five groups each group consisting of 10 animals (5 animals per sex). Animals in Group-1 were treated with vehicle (0.5% CMC), Group-2 was treated with Valproic acid (VPA) 400 mg/kg via subcutaneous route, Group-3, Group-4 and Group-5 were treated with test substance Agmatine Sulphate (25.83 mg/kg), Nicotinamide Riboside chloride (6.46 mg/kg) and Agmatine Sulphate+Nicotinamide Riboside chloride (25.83 mg/kg+6.46 mg/kg) respectively, according to the body weight of animals. At the end of the experimental period, blood was collected from each group for biochemical analyses. On postnatal day 40 (PND 40), all the animals were exposed to the Morris water maze test and Open field test for specific time periods to determine the autism-like behaviors of the test substances. […] The experiment was performed in 14-day old male and female off springs. The weight of the rat pups on the first day of the experiment was 20-40 grams. Sodium Valproate at dose of 400 mg/kg was freshly prepared and administered via subcutaneous route to the rat pups on postnatal day 14 (PND 14). All the animals were divided into five groups and each group contained the same amount of male and female offspring (5 males and 5 females, per group). Animals in Group-1 served as Normal control and were treated with 0.5% CMC, Group-2 served as Disease control and were treated with VPA (400 mg/kg) via intraperitoneally (i.p.), whereas Group-3 was treated with Test-1 Agmatine Sulphate (25.83 mg/kg), Group-4 was treated with Test-2 Nicotinamide Riboside chloride (6.46 mg/kg) and Group-5 was treated with Test-1+Test-2 Agmatine Sulphate+Nicotinamide Riboside chloride (25.83 mg/kg+6.46 mg/kg). The assigned test substances were administered once daily from PND 14 to PND 40. In addition, behaviors of experimental animals were determined via Morris water maze and open field test. […] The dose volume administered to each rat was 10 ml/kg/day. Similarly, 0.5% CMC for Normal control and Disease control groups was administered orally at the same dose volume for a minimum of 26 consecutive days. The dose volume was calculated for individual animals on the first day of the treatment and was re-calculated according to the recent body weights recorded during the study. Daily individual dose volumes were recorded in the study records. All the animals were exposed to open field tests after the oral treatment with various tests, standard and control treatment in respective groups. The open field apparatus consisted of a wooden field of half square meter with a series of squares alternatively painted in black and white. […] Animals were treated with vehicle and the drug and were placed in the middle of the open field. Then the number of squares visited by the animals was counted for a 6 minute session. The number of entries by respective groups was recorded and used to determine the active time duration of animal post dosing. The determination of the hyperactivity of animals via this test was done on PND 40.

[2] = test system: Major depression disorder in Wistar rats; assay: Forced swim test in Reserpine-induced major depression disorder; type: in vivo; conditions: for Immobility / mobility in forced swim test (in words): compared to disease control or to individual test substances
Lactate dehydrogenase = Lactate dehydrogenase (LDH) level in Valproic acid-induced autism disorder; type: in vivo, Albino wistar rats; conditions: for LDH: VPA 400 mg/kg, oral daily for 26 days, mean ± SEM; for Levels of lactate dehydrogenase (in words): compared to Disease control or to Group-3 and Group-4
Method: The present study was to evaluate the effect of test substances on Valproic acid induced Autism spectrum disorder in wistar rats. The animals (50 animals) were divided into five groups each group consisting of 10 animals (5 animals per sex). Animals in Group-1 were treated with vehicle (0.5% CMC), Group-2 was treated with Valproic acid (VPA) 400 mg/kg via subcutaneous route, Group-3, Group-4 and Group-5 were treated with test substance Agmatine Sulphate (25.83 mg/kg), Nicotinamide Riboside chloride (6.46 mg/kg) and Agmatine Sulphate+Nicotinamide Riboside chloride (25.83 mg/kg+6.46 mg/kg) respectively, according to the body weight of animals. At the end of the experimental period, blood was collected from each group for biochemical analyses. On postnatal day 40 (PND 40), all the animals were exposed to the Morris water maze test and Open field test for specific time periods to determine the autism-like behaviors of the test substances.
The experiment was performed in 14-day old male and female off springs. The weight of the rat pups on the first day of the experiment was 20-40 grams. Sodium Valproate at dose of 400 mg/kg was freshly prepared and administered via subcutaneous route to the rat pups on postnatal day 14 (PND 14). All the animals were divided into five groups and each group contained the same amount of male and female offspring (5 males and 5 females, per group). Animals in Group-1 served as Normal control and were treated with 0.5% CMC, Group-2 served as Disease control and were treated with VPA (400 mg/kg) via intraperitoneally (i.p.), whereas Group-3 was treated with Test-1 Agmatine Sulphate (25.83 mg/kg), Group-4 was treated with Test-2 Nicotinamide Riboside chloride (6.46 mg/kg) and Group-5 was treated with Test-1+Test-2 Agmatine Sulphate+Nicotinamide Riboside chloride (25.83 mg/kg+6.46 mg/kg). The assigned test substances were administered once daily from PND 14 to PND 40. In addition, behaviors of experimental animals were determined via Morris water maze and open field test.
The test item formulations were administered once each day by oral route at the dose levels of 25.83 mg/kg (agmatine sulphate), 6.46 mg/kg (nicotinamide riboside chloride) and 25.83 mg/kg+6.46 mg/kg/day (agmatine sulphate+nicotinamide riboside chloride), to rats of corresponding groups for a minimum of 26 consecutive days at approximately same time each day (±1 hour). The dose volume administered to each rat was 10 ml/kg/day. Similarly, 0.5% CMC for Normal control and Disease control groups was administered orally at the same dose volume for a minimum of 26 consecutive days. The dose volume was calculated for individual animals on the first day of the treatment and was re-calculated according to the recent body weights recorded during the study. Daily individual dose volumes were recorded in the study records.
Lactate dehydrogenase (also called lactic acid dehydrogenase or LDH) is an enzyme found in almost all body tissues. It plays an important role in cellular respiration, the process by which glucose (sugar) from food is converted into usable energy for our cells.

Interleukin - 6 = assay: Interleukin-6 level in global ischemia reperfusion induced brain injury (cerebral infarction) model; type: in vivo, Wistar rats; conditions: global ischemia (30 min)/72 h reperfusion, oral daily for 10 days, mean ± SEM, n = 6
[3] = forced swim test 5 min, Reserpine 1.0 mg/kg induced, oral daily 7 days, mean ± SEM, n = 6

N=C(N)NCCCCN.O=S(=O)(O)O [Agmatine sulphate]
No. of squares visited for 6 mins ([1]; Female): 85.40 ± 1.03 | No. of squares visited for 6 mins ([1]; Male): 86.20 ± 2.06 | Hyperactive behavior / locomotor activity, open field test (in words) [1]: significantly decreased hyperactive behavior | Immobility / mobility in forced swim test (in words) [2]: mobility of the animals in the treatment groups increased | Climbing [2, 3]: 16.50 ± 0.43 | Immobility [2, 3]: 99.67 ± 0.67 | LDH (Lactate dehydrogenase; Female): 272.20 ± 3.34 U/L | LDH (Lactate dehydrogenase; Male): 268.20 ± 2.56 U/L | Levels of lactate dehydrogenase (in words) (Lactate dehydrogenase): normalized levels of lactate dehydrogenase | Interleukin - 6 Levels (Interleukin - 6): 91.39 ± 0.92 pg/mL

NC(=O)c1ccc[n+]([C@@H]2O[C@H](CO)[C@@H](O)[C@H]2O)c1.[Cl-] [Nicotinamide Riboside chloride, nicotinamide riboside chloride]
No. of squares visited for 6 mins ([1]; Female): 87.20 ± 0.97 | No. of squares visited for 6 mins ([1]; Male): 88.40 ± 0.98 | Hyperactive behavior / locomotor activity, open field test (in words) [1]: significantly decreased hyperactive behavior | Immobility / mobility in forced swim test (in words) [2]: mobility of the animals in the treatment groups increased | Climbing [2, 3]: 15.50 ± 0.62 | Immobility [2, 3]: 105.50 ± 0.85 | Total time spent in active swimming [2, 3]: 185.33 ± 0.67 s | LDH (Lactate dehydrogenase; Female): 275.80 ± 1.71 U/L | LDH (Lactate dehydrogenase; Male): 274.00 ± 3.11 U/L | Levels of lactate dehydrogenase (in words) (Lactate dehydrogenase): normalized levels of lactate dehydrogenase | Interleukin - 6 Levels (Interleukin - 6): 109.56 ± 0.27 pg/mL
